Read-outs that look alike come from different tables or passages of the source.
Experiments:
Rhynchosporium commune = experiment: Leaf blotch of barley, whole-plant fungicidal activity (RHYNSE); type: in vivo; conditions: 24 h, 1DP (1 day protectant), read-out: % Disease Control Rating RHYNSE
Experimental: Technical grades of materials were dissolved in acetone, which were then mixed with nine volumes of water (H2O) containing 110 ppm Triton X-100. The fungicide solutions were applied onto wheat seedlings using an automated booth sprayer to run-off. All sprayed plants were allowed to air dry prior to further handling. All fungicides were evaluated using the aforementioned method for their activity vs. all target diseases, unless stated otherwise. Example D: Evaluation of Fungicidal Activity: Leaf Blotch of Barley (Rhynchosporium commune; Bayer Code […]) Barley plants (variety 'Harrington') were grown from seed in a greenhouse in soil-less potting mix until the first leaf was fully emerged, with 7-10 seedlings per pot. These plants were inoculated with an aqueous spore suspension of Rhynchosporium commune after fungicide treatments. After inoculation, the plants were kept in a dark dew room with 100% relative humidity for two days to permit spores to germinate and infect the leaf. The plants were then transferred to a greenhouse for disease to develop. Fungicide formulation and application were made as described in Example A. Disease assessment was conducted as described in Example A.

Puccinia triticina = experiment: Wheat brown rust, whole-plant fungicidal activity (PUCCRT); type: in vivo, Puccinia triticina on wheat plants (variety 'Yuma'); conditions: 24 h, 1DP (1 day protectant), read-out: % Disease Control Rating PUCCRT
Experimental: Technical grades of materials were dissolved in acetone, which were then mixed with nine volumes of water (H2O) containing 110 ppm Triton X-100. The fungicide solutions were applied onto wheat seedlings using an automated booth sprayer to run-off. All sprayed plants were allowed to air dry prior to further handling. All fungicides were evaluated using the aforementioned method for their activity vs. all target diseases, unless stated otherwise.
Example B: Evaluation of Fungicidal Activity: Wheat Brown Rust (Puccinia triticina; Synonym: Puccinia recondita f sp. tritici; Bayer Code PUCCRT)
Wheat plants (variety ‘Yuma’) were grown from seed in a greenhouse in soil-less potting mix until the first leaf was fully emerged, with 7-10 seedlings per pot. These plants were inoculated with an aqueous spore suspension of Puccinia triticina after fungicide treatments. After inoculation, the plants were kept in a dark dew room with 100% relative humidity overnight to permit spores to germinate and infect the leaf. The plants were then transferred to a greenhouse for disease to develop. Fungicide formulation, application and disease assessment followed the procedures as described in Example A.

Zymoseptoria tritici = experiment: Septoria leaf blotch of wheat, whole-plant fungicidal activity (SEPTTR); type: in vivo, Zymoseptoria tritici on wheat plants (variety 'Yuma'); conditions: read-out: % Disease Control Rating SEPTTR
Experimental: Example A: Evaluation of Fungicidal Activity: Septoria Leaf Blotch of Wheat (Zymoseptoria tritici; Bayer Code […]) Technical grades of materials were dissolved in acetone, which were then mixed with nine volumes of water (H2O) containing 110 ppm Triton X-100. The fungicide solutions were applied onto wheat seedlings using an automated booth sprayer to run-off. All sprayed plants were allowed to air dry prior to further handling. All fungicides were evaluated using the aforementioned method for their activity vs. all target diseases, unless stated otherwise. Wheat plants (variety 'Yuma') were grown from seed in a greenhouse in soil-less potting mix until the first leaf was fully emerged, with 7-10 seedlings per pot. These plants were inoculated with an aqueous spore suspension of Zymoseptoria tritici either 3 days prior to fungicide treatment (3 day curative; 3DC) or 1 day after fungicide treatment (1 day protectant; 1DP). After inoculation the plants were kept in 100% relative humidity for three days to permit spores to germinate and infect the leaf. The plants were then transferred to a greenhouse for disease to develop. When disease symptoms were fully expressed on the 1st leaves of untreated plants, infection levels were assessed on a scale of 0 to 100 percent disease severity. Percent disease control was calculated using the ratio of disease severity on treated plants relative to untreated plants.

Phakopsora pachyrhizi = experiment: Asian soybean rust, whole-plant fungicidal activity (PHAKPA); type: in vivo; conditions: read-out: % Disease Control Rating PHAKPA
Experimental: Example C: Evaluation of Fungicidal Activity: Asian Soybean Rust (Phakopsora pachyrhizi; Bayer Code […]) Technical grades of materials were dissolved in acetone, which were then mixed with nine volumes of H2O containing 0.011% Tween-20. The fungicide solutions were applied onto soybean seedlings using an automated booth sprayer to run-off. All sprayed plants were allowed to air dry prior to further handling. Soybean plants (variety 'Williams 82') were grown in soil-less potting mix, with one plant per pot. Ten-day-old seedlings were used for testing. Plants were inoculated as described in Example A. Plants were incubated for 24 h in a dark dew room with 100% relative humidity then transferred to a growth room for disease to develop. Fungicide formulation and application were made as described in Example A. When disease symptoms were fully expressed, disease severity was assessed on the sprayed leaves on a scale of 0 to 100 percent. Percent disease control was calculated using the ratio of disease severity on treated plants relative to untreated plants.

| Compound | pest or weed control at 200 ppm (Rhynchosporium commune) [%] | pest or weed control at 200 ppm (Puccinia triticina) [%] | pest or weed control at 200 ppm (Zymoseptoria tritici; 24 h, 1DP (1 day protectant)) [%] | pest or weed control at 200 ppm (Zymoseptoria tritici; 72 h, 3DC (3 day curative)) [%] | pest or weed control at 200 ppm (Phakopsora pachyrhizi; 24 h, 1DP (1 day protectant)) [%] | pest or weed control at 200 ppm (Phakopsora pachyrhizi; 72 h, 3DC (3 day curative)) [%] |
| --- | --- | --- | --- | --- | --- | --- |
| Cc1cc(C(=O)CC2CCCCC2)c(C)cc1/N=C/N(C)C [Compound 57] | < 20 | > 85 | 50 to 85 | < 20 | > 85 | > 85 |
| CCN(/C=N/c1cc(C)c(C(=O)CC2CCCCC2)cc1C)CC [Compound 58] | < 20 | > 85 | 50 to 85 | < 20 | > 85 | > 85 |
| Cc1cc(C(=O)CC2CCCCC2)c(C)cc1/N=C/N(C)C(C)C [Compound 59] | > 85 | > 85 | > 85 | > 85 | > 85 | > 85 |
| Cc1cc(C(=O)CC2CCCCC2)c(C)cc1/N=C/N(C)C1CC1 [Compound 60] | < 20 | > 85 | < 20 | < 20 | < 20 | < 20 |
| CCN(C)/C(S)=N/c1cc(C)c(C(=O)CC2CCCCC2)cc1C [Compound 61] | > 85 | > 85 | > 85 | < 20 | > 85 | > 85 |
| CCN(C)/C=N/c1cc(C)c(C(=O)Cc2ccc(C)cc2C)cc1C [Compound 62] | > 85 | > 85 | > 85 | 50 to 85 | > 85 | 20 to 50 |
| CCN(C)/C=N/c1cc(C)c(C(=O)Cc2ccc(C(F)(F)F)cc2)cc1C [Compound 63] | > 85 | > 85 | > 85 | 20 to 50 | > 85 | > 85 |
| CCCc1ccc(CC(=O)c2cc(C)c(/N=C/N(C)CC)cc2C)cc1 [Compound 64] | > 85 | > 85 | 50 to 85 | < 20 | > 85 | > 85 |
| CCN(C)/C=N/c1cc(C)c(C(=O)Cc2ccc(SC(F)(F)F)cc2)cc1C [Compound 65] | > 85 | > 85 | > 85 | 20 to 50 | > 85 | > 85 |
| CCN(C)/C=N/c1cc(C)c(C(=O)Cc2ccc(C(C)C)cc2)cc1C [Compound 66] | > 85 | > 85 | > 85 | < 20 | > 85 | > 85 |
| CCN(C)/C=N/c1cc(C)c(C(=O)Cc2ccc(C(C)(C)C)cc2)cc1C [Compound 67] | > 85 | > 85 | > 85 | < 20 | > 85 | > 85 |
| CCN(C)/C=N/c1cc(C)c(C(=O)Cc2ccc(F)cc2)cc1C [Compound 68] | > 85 | > 85 | > 85 | < 20 | > 85 | > 85 |
| CCN(C)/C=N/c1cc(C)c(C(=O)Cc2ccc(Cl)cc2)cc1C [Compound 69] | 50 to 85 | > 85 | 50 to 85 | 50 to 85 | > 85 | > 85 |
| CCc1cccc(CC(=O)c2cc(C)c(/N=C/N(C)CC)cc2C)c1 [Compound 70] | > 85 | > 85 | 50 to 85 | < 20 | > 85 | > 85 |
| CCN(C)/C=N/c1cc(C)c(C(=O)Cc2ccc3c(c2)CCC3)cc1C [Compound 71] | > 85 | > 85 | 20 to 50 | < 20 | > 85 | > 85 |
| CCN(C)/C=N/c1cc(OC)c(C(=O)CC2CCCCC2)cc1C [Compound 72] | < 20 | > 85 | < 20 | < 20 | > 85 | > 85 |
| Cc1cc(C(=O)CC2CCCC2)c(C)cc1/N=C/N(C)C [Compound 73, (E)-N′-(4-(2-cyclopentylacetyl)-2,5-dimethylphenyl)-N,N-dimethylformimidamide] | < 20 | > 85 | < 20 | < 20 | > 85 | > 85 |
| CCN(C)/C=N/c1cc(C)c(C(=O)CC2CCCC2)cc1OC [Compound 74] | 50 to 85 | > 85 | < 20 | < 20 | > 85 | > 85 |
| CCN(C)/C=N/c1ccc(C(=O)CC2CCCC2)cc1C [Compound 75] | < 20 | > 85 | < 20 | < 20 | 20 to 50 | > 85 |
| Cc1cc(C(=O)Cc2c(F)cc(F)cc2F)c(C)cc1/N=C/N(C)C [Compound 76] | < 20 | > 85 | < 20 | < 20 | > 85 |  |
| CCN(/C=N/c1cc(C)c(C(=O)CC2CCCC2)cc1C)CC [Compound 77] | 20 to 50 | > 85 | < 20 | < 20 | > 85 | > 85 |
| CCN(/C=N/c1cc(C)c(C(=O)Cc2c(F)cc(F)cc2F)cc1C)CC [Compound 78] | < 20 | > 85 | < 20 | < 20 | > 85 | > 85 |
| Cc1cc(C(=O)Cc2c(F)cc(F)cc2F)c(C)cc1/N=C/N(C)C(C)C [Compound 79] | 50 to 85 | > 85 | < 20 | < 20 | > 85 |  |

From patent US20240000075A1, “FUNGICIDAL ARYL AMIDINES” (CORTEVA AGRISCIENCE LLC, priority 2020, published 2024)
